According to ChEMBL document CHEMBL1201862, “PubChem BioAssay data set” (2004):
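All cell lines were grown in 96-well plates and treated with compound for 48 hours. GI50 = concentration required for 50% inhibition of growth.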 Active and inactive are the calls of the source. Rule as the data show it: active = GI50 up to about 1.1 µM and inactive = higher.

How the values were obtained:
Assay in all cases: NCI anticancer screen, dose series, 48 h
SNB-19 = tested on: SNB-19
UO-31 = tested on: UO-31
RXF 393 = tested on: RXF 393
MDA-N = tested on: MDA-N
DU-145 = tested on: DU-145
NCI-H23 = tested on: NCI-H23
Hs-578T = tested on: Hs-578T
HOP-92 = tested on: HOP-92
COLO 205 = tested on: COLO 205
HL-60 = tested on: HL-60
SF-539 = tested on: SF-539
HCT-15 = tested on: HCT-15
TK-10 = tested on: TK-10
SR = tested on: SR
CAKI-1 = tested on: CAKI-1
ACHN = tested on: ACHN
HOP-62 = tested on: HOP-62
LOX IMVI = tested on: LOX IMVI
IGROV-1 = tested on: IGROV-1
A549 = tested on: A549

Row | Compound | GI50 (SNB-19) | GI50 (UO-31) | GI50 (RXF 393) | GI50 (MDA-N) | GI50 (DU-145) | GI50 (NCI-H23) | GI50 (Hs-578T) | GI50 (HOP-92) | GI50 (COLO 205) | GI50 (HL-60) | GI50 (SF-539) | GI50 (HCT-15) [µM] | GI50 (TK-10) | GI50 (SR) | GI50 (CAKI-1) | GI50 (ACHN) | GI50 (HOP-62) | GI50 (LOX IMVI) | GI50 (IGROV-1) | GI50 (A549)
1 | Cc1ccc(-c2nc(N/N=C/C=C/c3ccccc3)c3ccccc3n2)cc1 | 37.6 µM (inactive) | 83.6 µM (inactive) | 26.2 µM (inactive) | 74.6 µM (inactive) | 25.9 µM (inactive) | 44.1 µM (inactive) | > 100 µM (inactive) | 31.3 µM (inactive) | 57.3 µM (inactive) | > 100 µM (inactive) | 55.5 µM (inactive) | 48.4 | 20 µM (inactive) | > 100 µM (inactive) | 38.8 µM (inactive) | 19.1 µM (inactive) | 64.4 µM (inactive) | 48.6 µM (inactive) | 19.2 µM (inactive) | 34.4 µM (inactive)
2 | CC(C)[Si](OC1=CCC[C@H]2NC(=O)[C@@H](Cc3ccccc3)[C@@]12C)(C(C)C)C(C)C | 10 µM (inactive) | 10.1 µM (inactive) | 4.16 µM (inactive) | 3.95 µM (inactive) | 10.2 µM (inactive) | 4.98 µM (inactive) | 4.67 µM (inactive) | 2.32 µM (inactive) | 2.33 µM (inactive) | 2.86 µM (inactive) | 5.74 µM (inactive) | 4.09 | 9.98 µM (inactive) | 2.62 µM (inactive) | 3.85 µM (inactive) | 1.89 µM (inactive) | 11.9 µM (inactive) | 3.03 µM (inactive) | 10.9 µM (inactive) | 2.98 µM (inactive)
3 | CCCCCc1cc2cc3c(c(O)c2c(=O)[nH]1)C1(CCC3)C(=O)c2c(O)ccc(O)c2C1=O | > 100 µM (inactive) | > 100 µM (inactive) | 43 µM (inactive) | > 100 µM (inactive) | > 100 µM (inactive) | > 100 µM (inactive) | > 100 µM (inactive) | > 100 µM (inactive) | > 100 µM (inactive) | > 100 µM (inactive) | > 100 µM (inactive) | > 100 | 38.6 µM (inactive) | > 100 µM (inactive) | > 100 µM (inactive) | > 100 µM (inactive) | 83.9 µM (inactive) | > 100 µM (inactive) | > 100 µM (inactive) | > 100 µM (inactive)
4 | CCCC1C(CC)C(NC)C(C#N)(C#N)C1(C#N)C#N (centres undefined) | 22.5 µM (inactive) | 14.6 µM (inactive) | 13.1 µM (inactive) | 16 µM (inactive) | 14.2 µM (inactive) | 21.4 µM (inactive) | 25.9 µM (inactive) | 14 µM (inactive) | 12.8 µM (inactive) | 20.4 µM (inactive) | 16.8 µM (inactive) | 13.2 | 16.9 µM (inactive) | 16.9 µM (inactive) | 11.4 µM (inactive) | 18.1 µM (inactive) | 15 µM (inactive) | 16.3 µM (inactive) | 15.7 µM (inactive) | 34.8 µM (inactive)
5 | CCC1(OC(=O)CN2CCN(CCO)CC2)C(=O)OCc2c1cc1n(c2=O)Cc2cc3ccccc3nc2-1 (centres undefined) | 0.216 µM (active) | 0.169 µM (active) | 0.593 µM (active) | 1.63 µM (inactive) | 0.0822 µM (active) | 0.167 µM (active) | 14 µM (inactive) | 1.26 µM (inactive) | 2.04 µM (inactive) | 0.286 µM (active) | 0.188 µM (active) | 1.49 | 8.49 µM (inactive) | 0.0221 µM (active) | 0.047 µM (active) | 0.0667 µM (active) | 0.0867 µM (active) | 0.18 µM (active) | 0.778 µM (active) | 0.307 µM (active)
6 | NC(=O)c1cccc([C@@H]2O[C@H](CO)[C@@H](O)[C@H]2O)c1 | 14 µM (inactive) | 5.35 µM (inactive) | 8.89 µM (inactive) | 24.1 µM (inactive) | 30.6 µM (inactive) | 10.3 µM (inactive) | 10.5 µM (inactive) | 18.5 µM (inactive) | 12.2 µM (inactive) | 3.21 µM (inactive) | 2.24 µM (inactive) | 3.37 | 29.6 µM (inactive) | 23.7 µM (inactive) | 18.4 µM (inactive) | 18.2 µM (inactive) | 8.3 µM (inactive) | 36 µM (inactive) | 37.8 µM (inactive) | 27.2 µM (inactive)
7 | O=C(CCCn1ccnc1[N+](=O)[O-])NCCn1cnc([N+](=O)[O-])n1 | – | > 100 µM (inactive) | > 100 µM (inactive) | > 100 µM (inactive) | > 100 µM (inactive) | > 100 µM (inactive) | > 100 µM (inactive) | > 100 µM (inactive) | > 100 µM (inactive) | > 100 µM (inactive) | > 100 µM (inactive) | > 100 | > 100 µM (inactive) | > 100 µM (inactive) | > 100 µM (inactive) | > 100 µM (inactive) | > 100 µM (inactive) | > 100 µM (inactive) | > 100 µM (inactive) | > 100 µM (inactive)
